Experimental data: US4033969A, “Vincamine derivatives” (Agence Nationale de Valorisation de la Recherche (ANVAR), priority 1972, dated 1977)
Where two headings read alike, the source gives them in different places.

Tests used:
Type in all cases: in vivo
[1] = test system: mice; test: Survival time of mice under a confined atmosphere; conditions: for ED50: Mus musculus, protected = survival time greater by at least 30% than reference animals, read-out: ED50 (protects 50% of the test animals)
Description: 2. Survival time of mice under a confined atmosphere
Mice are individually placed in sealed 250 ml glass jars. Survival time is measured taking respiratory failure as a criterion of death.
The test materials are administered as aqueous solutions:
either intraperitoneally, in which case the animals are submitted to the test 30 minutes after injection,
or orally, in which case the animals are submitted to the test 1.5 hour after administration.
The dosage of material (ED50) which protects 50% of the test animals is determined: is considered as protected, a mouse having a survival time greater by a factor of at least 30% with respect to the average survival time of the reference animals.

[2] = Acute toxicity in mice (i.v.); conditions: mouse, in vivo, iv
Description: (§1) 1. Acute toxicity in mice
(§2) The dosage of test material which, on intravenous administration in mice causes the death of 50% of the test animals is determined (death rate is determined after 10 days of observation).

[3] = test system: spinal rat; test: Electroencephalographic consequences of cerebral hypoxia induced by temporary ischemia in rat; conditions: for Cortical recovery time / Cortical resistance time: rat ischemia, 5 min prior; for Cortical recovery time: saline 19.8 ± 1.3; for Cortical resistance time: saline 22.3 ± 0.6
Description: 3. Electroencephalographic consequences of cerebral hypoxia induced by temporary ischemia in rat
In spinal rat, the effects of a temporary cerebral ischemic hypoxia obtained by ligation of the vertebral arteries and clamping, during 60 seconds, of the carotid arteries, are investigated at the level of the electrocorticogram (recorded in fronto-parietal lead). The following times are determined:
on the one hand, the "cortical resistance" time, i.e., the period of time which elapses between failure of the cerebral circulation and the appearance, in the recording, of the "dectric silence"disappearance of cortical electrogenesis), and
on the other hand, the "cortical recovery" time, i.e., the period of time which elapses between unclamping of the carotid arteries and the reappearance of a cortical electrogenesis.
The test materials are administered intravenously 5 minutes prior to ischemia. The results obtained in the treated animals are compared with those obtained in a lot of reference animals according to Student's "t" method.

[4] = test system: curarized cat; test: Electroencephalographic consequences of cerebral hypoxia induced by temporary asphyxia in cat; conditions: for Cortical recovery time / Cortical resistance time: cat asphyxia, 5 min prior; for Cortical recovery time: saline 27.3 ± 2.3; for Cortical resistance time: saline 108 ± 5.6
Source text: 5. Electroencephalographic consequences of cerebral hypoxia induced by temporary asphyxia in cat
The effects of an asphyxic cerebral hypoxia, obtained by temporary discontinuance of the artificial respiration of a curarized cat are investigated at the level of the electrocorticogram (recorded in parieto-occipital lead), by determining:
on the one hand, the "cortical resistance" time, i.e., the period of time which elapses between the discontinuance of the artificial respiration and the appearance in the recording of the "electric silence" (disappearance of cortical electrogenesis),
on the other hand, the "cortical recovery" time, i.e., the period of time which elapses between the resumption of artificial respiration and the reappearance of a cortical electrogenesis. The resumption of artificial respiration is effected in all cases 45 seconds after appearance of the cortical silence.
(§3) The test materials are administered intravenously 5 minutes prior to asphyxia. The results obtained in the treated animals are compared with those obtained in a lot of reference animals, according to Student's "t" method.

[5] = test system: curarized rat; test: Electroencephalographic consequences of cerebral hypoxia induced by temporary asphyxia in rat; conditions: for Cortical recovery time / Cortical resistance time: rat asphyxia, 5 min prior; for Cortical recovery time: saline 42.3 ± 7.3; for Cortical resistance time: saline 77.8 ± 2.9
Source text: 4. Electroencephalographic consequences of a cerebral hypoxia induced by temporary asphyxia in rat
The effects of an asphyxic cerebral hypoxia, obtained by a two-minute interruption of the artificial respiration of a curarized rat are investigated at the level of the electro-corticogram (recorded in fronto-parietal lead) by determining:
on the one hand the "cortical resistance" time, i.e., the period of time which elapses between the discontinuation of artificial respiration and the appearance in the recording of the "electric silence" (disappearance of cortical electrogenesis),
on the other hand, the "cortical recovery" time, i.e., the period of time which elapses between the resumption of artificial respiration and the reappearance of a cortical electrogenesis.
as §3

[6] = test system: mice; test: Acute toxicity in mice (i.v.); conditions: mice
Description: as §1, §2

[7] = ip, 0.5 h, i.p., 30 min before test
[8] = 2.5 mg/kg i.v., n=6, mean ± standard deviation from mean
[9] = 2.5 mg/kg i.v., n=8, mean ± standard deviation from mean

Question: Which ED50 [1, 7] does the source give for `CC[C@]12CCCN3CCc4c(n(c5ccccc45)[C@@](O)(C(=O)OC)C1)[C@@H]32` (racemic) [Vincamine, (.-+.)-Vincamine] here?
Answer: 18 mg/kg

Question: What about the ED50 ([1]; po, 1.5 hour before test) of the same compound?
Answer: 40 mg/kg

Question: What about the “Number of mice protected” value ([1]; i.p., 1 mg/kg, 30 min before test) of the same compound?
Answer: 0/6

Question: And the “Number of mice protected” value ([1]; i.p., 5 mg/kg, 30 min before test)?
Answer: 1/6

Question: And the “Number of mice protected” value ([1]; i.p., 25 mg/kg, 30 min before test)?
Answer: 4/6

Question: What about the “Number of mice protected” value ([1]; p.o., 25 mg/kg, 1.5 hour before test) of the same compound?
Answer: 2/6

Question: What about the “Number of mice protected” value ([1]; p.o., 50 mg/kg, 1.5 hour before test) of the same compound?
Answer: 4/6

Question: What about the “Number of mice protected” value ([1]; p.o., 100 mg/kg, 1.5 hour before test) of the same compound?
Answer: 5/6

Question: And the LD50 at 240 h ([2]; mice, i.v., death rate after 10 days of observation)?
Answer: 62 mg/kg

Question: And the Cortical recovery time [3, 8]?
Answer: 21.8 ± 2.0 s

Question: And the Cortical resistance time [3, 8]?
Answer: 22.2 ± 1.2 s

Question: What about the Cortical recovery time ([3]; 5 mg/kg i.v., n=7) of the same compound?
Answer: 19.9 ± 3.0 s

Question: What about the Cortical resistance time ([3]; 5 mg/kg i.v., n=7) of the same compound?
Answer: 23.4 ± 0.9 s

Question: And the protective activity ([3]; rat, ischemia, 2.5 and 5 mg/kg i.v.)?
Answer: free from any protective activity

Question: What about the Cortical recovery time [4, 9] of the same compound?
Answer: 24.6 ± 3.4 s

Question: What about the Cortical resistance time [4, 9] of the same compound?
Answer: 101 ± 13.9 s

Question: And the Cortical recovery time ([4]; 5 mg/kg i.v., n=8, (*) significant P <0.05 vs controls)?
Answer: 19.6 ± 1.4 s

Question: What about the Cortical resistance time ([4]; 5 mg/kg i.v., n=8) of the same compound?
Answer: 101 ± 5.6 s

Question: What about the protective activity ([4]; cat, asphyxia, 5 mg/kg i.v. (tenfold dosage)) of the same compound?
Answer: apparent only at a tenfold dosage of 5 mg/kg i.v.

Question: What about the Cortical recovery time [5, 8] of the same compound?
Answer: 55.5 ± 20.2 s

Question: And the Cortical resistance time [5, 8]?
Answer: 83.3 ± 6.4 s

Question: What about the Cortical recovery time ([5]; 5.0 mg/kg i.v., n=6) of the same compound?
Answer: 32.8 ± 1.8 s

Question: What about the Cortical resistance time ([5]; 5.0 mg/kg i.v., n=6) of the same compound?
Answer: 89.0 ± 7.6 s

Question: What about the protective activity ([5]; rat, asphyxia, 2.5 and 5 mg/kg i.v.) of the same compound?
Answer: free from any protective activity

Question: For `COC(=O)[C@@]1(O)C[C@@H]2CCCN3CCc4c(n1c1ccccc41)[C@H]23` (relative stereo) [Deethylvincamine, (±) 20-Deethyl-vincamine], which ED50 [1, 7] is on record?
Answer: 8 mg/kg

Question: What about the ED50 ([1]; po, 1.5 hour before test) of the same compound?
Answer: 24.5 mg/kg

Question: What about the “Number of mice protected” value ([1]; i.p., 3 mg/kg, 30 min before test) of the same compound?
Answer: 1/6

Question: And the “Number of mice protected” value ([1]; i.p., 9 mg/kg, 30 min before test)?
Answer: 3/6

Question: And the “Number of mice protected” value ([1]; i.p., 27 mg/kg, 30 min before test)?
Answer: 6/6

Question: And the “protective activity (increase of the survival time)” value ([1]; mice, confined atmosphere, i.p. and p.o., compared with vincamine)?
Answer: markedly superior to that of vincamine

Question: And the “Number of mice protected” value ([1]; p.o., 7.5 mg/kg, 1.5 hour before test)?
Answer: 0/6

Question: What about the “Number of mice protected” value ([1]; p.o., 15 mg/kg, 1.5 hour before test) of the same compound?
Answer: 1/6

Question: What about the “Number of mice protected” value ([1]; p.o., 30 mg/kg, 1.5 hour before test) of the same compound?
Answer: 4/6

Question: And the LD50 at 240 h [2]?
Answer: 40 mg/kg

Question: And the “acute toxicity compared with vincamine” value [6]?
Answer: substantially of the same order of magnitude as that of vincamine

Question: And the Cortical recovery time ([3]; 0.25 mg/kg i.v., n=6)?
Answer: 20.3 ± 2.7 s

Question: What about the Cortical resistance time ([3]; 0.25 mg/kg i.v., n=6) of the same compound?
Answer: 25.3 ± 1.2 s

Question: And the Cortical recovery time ([3]; 0.5 mg/kg i.v., n=6, (*) significant P < 0.05 vs controls)?
Answer: 14.3 ± 1.1 s

Question: What about the Cortical resistance time ([3]; 0.5 mg/kg i.v., n=6) of the same compound?
Answer: 24.3 ± 1.6 s

Question: What about the “protective activity (decrease of time required for resumption of cortical electrogenesis)” value ([3]; rat, ischemia, 0.5 mg/kg i.v.) of the same compound?
Answer: marked protective activity

Question: And the Cortical recovery time ([4]; 0.5 mg/kg i.v., n=6, (*) significant P <0.05 vs controls)?
Answer: 19.0 ± 2.0 s

Question: What about the Cortical resistance time ([4]; 0.5 mg/kg i.v., n=6) of the same compound?
Answer: 98 ± 10.8 s

Question: And the “protective activity (decrease of time required for resumption of cortical electrogenesis)” value ([4]; cat, asphyxia, 0.5 mg/kg i.v.)?
Answer: exhibits a protective activity

Question: And the Cortical recovery time ([5]; 0.5 mg/kg i.v., n=6)?
Answer: 38.8 ± 5.9 s

Question: What about the Cortical resistance time ([5]; 0.5 mg/kg i.v., n=6) of the same compound?
Answer: 84.2 ± 4.5 s

Question: And the Cortical recovery time ([5]; 1 mg/kg i.v., n=7, (*) significant P<0.05 vs controls)?
Answer: 23.0 ± 5.0 s

Question: What about the Cortical resistance time ([5]; 1 mg/kg i.v., n=7) of the same compound?
Answer: 78.0 ± 5.6 s

Question: What about the “protective activity (decrease of time required for resumption of cortical electrogenesis)” value ([5]; rat, asphyxia, 1 mg/kg i.v.) of the same compound?
Answer: marked protective activity
